Results as given in patent US7417036B2, “Crystal form of adefovir dipivoxil and its preparation” (Tianjin Kinsly Pharmaceutical Co. Ltd., priority 2002, dated 2008).
Several values for one entry are separate records, joined by “and”; a condition that tells them apart may be missing. Equal values may be shown once.

Experiment: Kinetic studies of the plasma concentration in animals with different crystalline forms of AD (oral, monkeys; adefovir measured in serum by HPLC)
Assay type: in vivo, Macaques
Experimental: The experiment was carried out by orally administering to monkeys the drugs in order to investigate the in vivo absorption of two crystalline forms of AD: the novel crystalline AD of the present invention produced by Tianjin Kinsly pharmaceutical R & D Co. Ltd. and crystalline form I of AD prepared according to the method of GILEAD SCIENCES INC. The experiment provides useful clinical references for the application of novel crystalline AD.
Tablets of novel crystalline form of AD, white, each of which contains 10 mg of adefovir, Tianjin Kinsly pharmaceutical R&D Co. Ltd., batch number 020320.
Tablets of AD crystalline form I, white, each of which contains 10 mg of adefovir, Tianjin Kinsly pharmaceutical R&D Co. Ltd., batch number 020225.
Macaques, weighing from 5 kg to 8 kg (certificate No: 2001-03, approved by Beijing Forestry Administration in the document of [2001] 83) were provided by Xie'er Animal Health Caring Science and Technology Co. Ltd (Beijing, P. R. China).
As the pro-drug of adefovir, AD is the bis-pivaloyloxymethyl ester of adefovir, which increases the in vivo bioavailability of orally administered adefovir. AD can be rapidly metabolized into PMEA, rendering it undetectable in blood. Thus the concentration of its parent compound was measured.
Mobile phase: 0.2% phosphoric acid-methanol-B7 (97:3:0.5) degassed and filtrated through 0.45 μm milipore filter.
Stationary phase: C18-column (4.6×250 mm) packed with 5μ fillers, Tianjin Tianhe Chromatogram Inc, the column temperature from 18° C. to 22° C.
Detection: the UV detection wavelength λ=260 nm (0.01AUFS)
A given volume of serum was taken and an equal volume of 10% trichloroacetic acid was added. The mixture was shaken thoroughly and kept still for more than 30 min to precipitate the proteins, then centrifuged at 10000 rpm for 2 min. The precipitates were separated and 30 μL of the supernat was removed for injection.
The experiment was started one week after intestinal worms were dispelled from the animals. Eight animals were randomly assigned into two groups, each consisting of four animals. The animals were fasted for 12 h and were orally administered the novel crystalline form of AD for one group or crystalline form I of AD for another group at a dose of 20 mg/kg together with 200 ml of water. 2 hours after administration, the animals were fed in a fixed quantity. 2.0 ml samples of whole blood were collected from the elbow veins before administration and 10, 20, 30, 45 min and 1, 2, 4, 6, 8, 12, and 24 h after administration. The serum was separated and freeze-stored for measurement. A cross-experiment was done similarly 2 weeks later.
The pharmacokinetic parameters were calculated based on the plasma concentrations at different time points. The time to peak concentration (Tpeak) and the maximum concentration (Cmax) used the measured value. The terminal phase elimination rate constant (Ke) was obtained by fitting the linear section of the curve of logarithm of the plasma concentration of drug in terminal phase versus time and the terminal phase clearance half life time (T1/2) was calculated by dividing 0.693 by Ke. AUC0-t was calculated according to the trapezoid rule.
Apparent volume of distribution (Vd)=dosage/(AUCXKe);
Total Clearance (CL)=dosage/AUC.
Comparison of the data of the two crystalline form: Data of Cmax, Ke, T1/2 and AUC0-t were statistically processed by t test, while Tpeak was processed by non-parametric test. In addition, Comparison of bio-equivalence was carried out based on Cmax and AUC0-t by using two one-sided t test.
Eight macaques were assigned into two groups, group for the novel crystalline form and the group for crystalline form I. The animals were administered according to an open randomized crossover scheme. Afterward, adefovir concentrations in serum were measured at the predetermined time points. […]

[1] = adefovir, oral 20 mg/kg, macaques, average of 8 animals (ASD row)
[2] = adefovir, oral 20 mg/kg, macaques, individual animal No. 1-8, listed as Crystalline form I, 20 mg/kg

## CC(C)(C)C(=O)OCOP(=O)(COCCn1cnc2c(N)ncnc21)OCOC(=O)C(C)(C)C [crystalline form I, reference compound]
0.167 h after oral administration, 20 mg/kg, macaques, average of 8 animals (ASD row)
  Adefovir concentrations in serum (Plasma concentrations versus time), average: 77.0 ng/mL
0.167 h after oral administration, 20 mg/kg, macaques, individual animal No. 1-8, 20 mg/kg
  Adefovir concentrations in serum (Plasma concentrations versus time): 66.6 ng/mL and 90.1 ng/mL
0.333 h after oral administration, 20 mg/kg, macaques, average of 8 animals (ASD row)
  Adefovir concentrations in serum (Plasma concentrations versus time), average: 235.4 ng/mL
0.333 h after oral administration, 20 mg/kg, macaques, individual animal No. 1-8, 20 mg/kg
  Adefovir concentrations in serum (Plasma concentrations versus time): 148.0 ng/mL
0.5 h after oral administration, 20 mg/kg, macaques, average of 8 animals (ASD row)
  Adefovir concentrations in serum (Plasma concentrations versus time), average: 546.7 ng/mL
0.5 h after oral administration, 20 mg/kg, macaques, individual animal No. 1-8, 20 mg/kg
  Adefovir concentrations in serum (Plasma concentrations versus time): 397.9 ng/mL
0.75 h after oral administration, 20 mg/kg, macaques, average of 8 animals (ASD row)
  Adefovir concentrations in serum (Plasma concentrations versus time), average: 350.9 ng/mL
0.75 h after oral administration, 20 mg/kg, macaques, individual animal No. 1-8, 20 mg/kg
  Adefovir concentrations in serum (Plasma concentrations versus time): 305.2 ng/mL
1 h after oral administration, 20 mg/kg, macaques, average of 8 animals (ASD row)
  Adefovir concentrations in serum (Plasma concentrations versus time), average: 285.2 ng/mL
1 h after oral administration, 20 mg/kg, macaques, individual animal No. 1-8, 20 mg/kg
  Adefovir concentrations in serum (Plasma concentrations versus time): 196.6 ng/mL
2 h after oral administration, 20 mg/kg, macaques, average of 8 animals (ASD row)
  Adefovir concentrations in serum (Plasma concentrations versus time), average: 230.5 ng/mL
2 h after oral administration, 20 mg/kg, macaques, individual animal No. 1-8, 20 mg/kg
  Adefovir concentrations in serum (Plasma concentrations versus time): 161.3 ng/mL
4 h after oral administration, 20 mg/kg, macaques, average of 8 animals (ASD row)
  Adefovir concentrations in serum (Plasma concentrations versus time), average: 177.5 ng/mL
4 h after oral administration, 20 mg/kg, macaques, individual animal No. 1-8, 20 mg/kg
  Adefovir concentrations in serum (Plasma concentrations versus time): 89.3 ng/mL
6 h after oral administration, 20 mg/kg, macaques, average of 8 animals (ASD row)
  Adefovir concentrations in serum (Plasma concentrations versus time), average: 146.8 ng/mL
6 h after oral administration, 20 mg/kg, macaques, individual animal No. 1-8, 20 mg/kg
  Adefovir concentrations in serum (Plasma concentrations versus time): 102.0 ng/mL
8 h after oral administration, 20 mg/kg, macaques, average of 8 animals (ASD row)
  Adefovir concentrations in serum (Plasma concentrations versus time), average: 116.7 ng/mL
8 h after oral administration, 20 mg/kg, macaques, individual animal No. 1-8, 20 mg/kg
  Adefovir concentrations in serum (Plasma concentrations versus time): 82.9 ng/mL
12 h after oral administration, 20 mg/kg, macaques, average of 8 animals (ASD row)
  Adefovir concentrations in serum (Plasma concentrations versus time), average: 86.0 ng/mL
12 h after oral administration, 20 mg/kg, macaques, individual animal No. 1-8, 20 mg/kg
  Adefovir concentrations in serum (Plasma concentrations versus time): 70.1 ng/mL and 72.6 ng/mL
24 h after oral administration, 20 mg/kg, macaques, average of 8 animals (ASD row)
  Adefovir concentrations in serum (Plasma concentrations versus time), average: 44.3 ng/mL
24 h after oral administration, 20 mg/kg, macaques, individual animal No. 1-8, 20 mg/kg
  Adefovir concentrations in serum (Plasma concentrations versus time): 36.8 ng/mL and 56.6 ng/mL
Adefovir apparent volume of distribution, oral 20 mg/kg, macaques, individual animal No. 1-8, 20 mg/kg
  Vd: 125.6 L and 107.3 L and 85.8 L and 95.0 L and 145.1 L and 76.6 L and 158.8 L and 99.9 L
adefovir, oral 20 mg/kg
  average AUCO-T: 2723.82 ng·h/mL
  average Tpeak: 0.53 h
  average apparent volume of distribution (Vc): 17.50 L
  average elimination half-life time: 10.5 h
  average peak concentration: 551.21 ng/mL
adefovir, oral 20 mg/kg, macaques, average of 8 animals
  Cmax, average: 551.21 ng/mL
[1]
  CL, average: 7723.2 mL/h
  Ke, average: 0.072 L/h
  T1/2, average: 10.5 h
  Tpeak, average: 0.53 h
  Vd, average: 117.0 L
adefovir, oral 20 mg/kg, macaques, average of 8 animals, listed as Crystalline form I, 20 mg/kg
  AUC0-t, average: 2723.8 ng·h/mL
adefovir, oral 20 mg/kg, macaques, average of 8 animals, listed as Form I, 20 mg/kg
  AUC0-t, average: 2724 ng·h/mL
[2]
  AUC0-t: 2214.1 ng·h/mL and 2624.4 ng·h/mL and 2188.0 ng·h/mL and 3647.5 ng·h/mL and 3379.4 ng·h/mL and 3452.3 ng·h/mL and 2317.8 ng·h/mL and 1967.0 ng·h/mL
  Cmax: 402.2 ng/mL and 785.4 ng/mL and 366.2 ng/mL and 698.1 ng/mL and 915.4 ng/mL and 432.2 ng/mL and 412.3 ng/mL and 397.9 ng/mL
  T1/2: 9.6 h and 9.8 h and 6.5 h and 12.0 h and 17.0 h and 9.2 h and 12.8 h and 6.8 h
  Tpeak: 0.5 h (7×) and 0.75 h
adefovir, oral 20 mg/kg, macaques, individual animal No. 1-8, listed as Form I, 20 mg/kg
  Cmax: 689.1 ng/mL
